Measured values reported in article PMC3391414 (Journal of Agricultural and Food Chemistry, 2011).
“Also recorded” adds a separate entry of the source.

Experiments:
UGT1A7 = molecular target: T1, UGT1A7 (Homo sapiens, UniProt Q9HAW7); test: Glucuronidation by recombinant human UGT1A7; settings: UGT1A7, substrate 10 μM
T1 sequence (Q9HAW7 26-530): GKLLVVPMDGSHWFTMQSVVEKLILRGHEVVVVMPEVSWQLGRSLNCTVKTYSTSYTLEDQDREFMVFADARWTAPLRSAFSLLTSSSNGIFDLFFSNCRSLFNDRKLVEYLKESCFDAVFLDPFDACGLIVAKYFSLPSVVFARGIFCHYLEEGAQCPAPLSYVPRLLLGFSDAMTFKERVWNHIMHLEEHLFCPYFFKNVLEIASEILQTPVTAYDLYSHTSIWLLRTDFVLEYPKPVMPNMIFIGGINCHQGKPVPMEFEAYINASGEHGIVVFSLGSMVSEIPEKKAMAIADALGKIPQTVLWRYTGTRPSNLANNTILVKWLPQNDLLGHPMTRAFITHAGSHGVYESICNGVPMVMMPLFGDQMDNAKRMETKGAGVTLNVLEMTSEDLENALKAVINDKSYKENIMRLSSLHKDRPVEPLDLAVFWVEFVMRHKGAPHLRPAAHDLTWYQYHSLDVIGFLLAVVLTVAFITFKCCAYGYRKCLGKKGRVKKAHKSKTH

UGT1A9 = molecular target: T2, UGT1A9 (Homo sapiens, UniProt O60656); test: Glucuronidation by recombinant human UGT1A9
T2 sequence (O60656 26-530): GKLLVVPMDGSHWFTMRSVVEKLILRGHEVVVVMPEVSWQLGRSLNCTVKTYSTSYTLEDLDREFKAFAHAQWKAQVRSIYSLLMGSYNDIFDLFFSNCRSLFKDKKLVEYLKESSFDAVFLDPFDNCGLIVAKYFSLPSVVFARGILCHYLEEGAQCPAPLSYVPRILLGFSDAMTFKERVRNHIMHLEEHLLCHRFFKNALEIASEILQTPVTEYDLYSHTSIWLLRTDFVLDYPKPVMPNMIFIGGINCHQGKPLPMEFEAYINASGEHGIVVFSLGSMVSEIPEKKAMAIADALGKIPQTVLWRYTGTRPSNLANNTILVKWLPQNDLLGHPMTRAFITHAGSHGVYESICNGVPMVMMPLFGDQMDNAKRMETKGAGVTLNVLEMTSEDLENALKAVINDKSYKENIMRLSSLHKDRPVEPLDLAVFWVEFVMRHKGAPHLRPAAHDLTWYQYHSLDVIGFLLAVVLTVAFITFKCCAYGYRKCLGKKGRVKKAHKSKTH

UGT1A3 = molecular target: T3, UGT1A3 (Homo sapiens, UniProt P35503); test: Glucuronidation by recombinant human UGT1A3
T3 sequence (P35503 29-534): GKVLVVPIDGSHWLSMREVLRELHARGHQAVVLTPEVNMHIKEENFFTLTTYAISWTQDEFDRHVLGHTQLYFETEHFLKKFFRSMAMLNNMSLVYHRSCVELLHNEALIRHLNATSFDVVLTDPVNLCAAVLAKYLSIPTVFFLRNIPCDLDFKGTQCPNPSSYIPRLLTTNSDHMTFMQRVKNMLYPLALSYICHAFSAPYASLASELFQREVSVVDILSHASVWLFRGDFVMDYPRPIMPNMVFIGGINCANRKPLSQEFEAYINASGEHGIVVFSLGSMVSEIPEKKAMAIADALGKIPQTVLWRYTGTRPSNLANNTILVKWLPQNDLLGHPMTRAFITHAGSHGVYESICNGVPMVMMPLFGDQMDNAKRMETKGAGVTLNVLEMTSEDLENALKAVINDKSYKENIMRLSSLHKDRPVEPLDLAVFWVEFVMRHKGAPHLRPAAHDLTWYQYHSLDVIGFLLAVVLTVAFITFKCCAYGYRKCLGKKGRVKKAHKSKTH

UGT1A10 = molecular target: T4, UGT1A10 (Homo sapiens, UniProt Q9HAW8); test: Glucuronidation by recombinant human UGT1A10; settings: UGT1A10, substrate 10 μM
T4 sequence (Q9HAW8 26-530): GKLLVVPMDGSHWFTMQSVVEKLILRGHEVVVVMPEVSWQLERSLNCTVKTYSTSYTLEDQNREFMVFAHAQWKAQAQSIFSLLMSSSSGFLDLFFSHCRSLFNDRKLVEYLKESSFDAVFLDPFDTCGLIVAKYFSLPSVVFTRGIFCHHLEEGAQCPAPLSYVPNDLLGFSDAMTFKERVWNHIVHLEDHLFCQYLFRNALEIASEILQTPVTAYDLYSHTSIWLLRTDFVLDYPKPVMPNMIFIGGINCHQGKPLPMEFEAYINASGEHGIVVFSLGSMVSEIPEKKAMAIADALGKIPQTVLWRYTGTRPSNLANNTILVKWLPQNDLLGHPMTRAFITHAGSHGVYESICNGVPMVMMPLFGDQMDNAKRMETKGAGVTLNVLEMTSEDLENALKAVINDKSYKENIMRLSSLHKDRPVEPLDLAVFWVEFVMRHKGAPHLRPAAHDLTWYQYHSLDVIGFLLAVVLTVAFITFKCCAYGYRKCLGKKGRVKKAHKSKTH

UGT1A1 = molecular target: T5, UGT1A1 (Homo sapiens, UniProt P22309); test: Glucuronidation by recombinant human UGT1A1
T5 sequence (P22309 26-533): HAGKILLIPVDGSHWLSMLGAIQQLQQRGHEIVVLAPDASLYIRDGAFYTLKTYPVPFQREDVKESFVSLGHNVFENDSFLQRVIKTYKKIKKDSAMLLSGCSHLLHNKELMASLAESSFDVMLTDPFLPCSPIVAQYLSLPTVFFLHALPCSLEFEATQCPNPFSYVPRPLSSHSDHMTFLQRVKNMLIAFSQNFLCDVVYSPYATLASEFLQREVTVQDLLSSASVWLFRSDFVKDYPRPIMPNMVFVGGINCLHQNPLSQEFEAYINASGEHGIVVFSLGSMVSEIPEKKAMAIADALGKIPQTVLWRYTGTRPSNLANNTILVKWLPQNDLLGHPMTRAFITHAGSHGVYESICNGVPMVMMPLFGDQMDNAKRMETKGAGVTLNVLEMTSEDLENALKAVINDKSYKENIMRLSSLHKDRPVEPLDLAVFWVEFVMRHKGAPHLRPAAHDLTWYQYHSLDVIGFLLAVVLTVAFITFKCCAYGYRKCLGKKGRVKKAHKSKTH

Hydroxyl positions glucuronidated (UGT1A7): glucuronidated 3-O, 7-O and 4’-O
Degree of regiospecificity (major glucuronide in bracket) (UGT1A9; UGT1A9, substrate 2.5 μM): Moderate (3-O)
Degree of regiospecificity (major glucuronide in bracket) (UGT1A9; UGT1A9, substrate 10 μM): Weak (3-O)
Degree of regiospecificity (3-O vs 7-O) (UGT1A9; UGT1A9, substrate 35 μM): no regiospecificity
Degree of regiospecificity (major glucuronide in bracket) (UGT1A3; UGT1A3, substrate 2.5 μM): No (3-O, 7-O)
Degree of regiospecificity (major glucuronide in bracket) (UGT1A3; UGT1A3, substrate 10 μM): No (3-O, 7-O)
Hydroxyl positions glucuronidated (UGT1A3; UGT1A3, substrate 10 μM): glucuronidated 3-O, 7-O and 4’-O
Hydroxyl positions glucuronidated (UGT1A10): glucuronidated 3-O, 7-O and 4’-O
Degree of regiospecificity (major glucuronide in bracket) (UGT1A1; UGT1A1, substrate 2.5 μM): Weak (7-O)
Degree of regiospecificity (major glucuronide in bracket) (UGT1A1; UGT1A1, substrate 10 μM): No (3-O, 7-O)
Hydroxyl positions glucuronidated (UGT1A1; UGT1A1, substrate 10 μM): glucuronidated 3-O, 7-O and 4’-O
Degree of regiospecificity (3-O vs 7-O) (UGT1A1; UGT1A1, substrate 35 μM): no regiospecificity
Structure (SMILES): O=c1c(O)c(-c2ccc(O)cc2)oc2cc(O)cc(O)c12 [5,7,4'THFnol, 3,5,7,4’-tetrahydroxyflavone]
Degree of regiospecificity (major glucuronide in bracket) (UGT1A9; UGT1A9, substrate 2.5 μM, listed as 5,7,4’THFnol): moderate regiospecificity for glucuronidation of 3-O position
Hydroxyl positions glucuronidated (UGT1A9; UGT1A9, substrate 10 μM): glucuronidated only 3-O and 7-O positions
Degree of regiospecificity (major glucuronide in bracket) (UGT1A9; UGT1A9, substrate 10 μM, listed as 5,7,4’THFnol): only weakly preferred 3-O position; also recorded: weak regiospecificity for glucuronidation of 3-O position
Degree of regiospecificity (major glucuronide in bracket) (UGT1A3; UGT1A3, substrate 10 μM, listed as 5,7,4’THFnol): no regiospecific preference between 3-O and 7-O; also recorded: did not show dominant regiospecificity for 7-O position
Degree of regiospecificity (major glucuronide in bracket) (UGT1A1; UGT1A1, substrate 2.5 μM, listed as 5,7,4’THFnol): weakly preferred the glucuronidation of 7-O position
Degree of regiospecificity (major glucuronide in bracket) (UGT1A1; UGT1A1, substrate 10 μM, listed as 5,7,4’THFnol): no regiospecific preference between 3-O and 7-O; also recorded: no regiospecificity
